Reference: the supplement of paper PMC10307832

Experiments:
Test in all cases: relative viability (nuclei count vs DMSO), 5 days (fraction); higher = more cells survive
[1] = compound: C1=CC(=CC=C1C2=CC(=C(S2)NC(=O)N)C(=O)N)F [TPCA-1] + COc1cc2c(Oc3ccc(NC(=O)C4(C(=O)Nc5ccc(F)cc5)CC4)cc3F)ccnc2cc1OCCCN1CCOCC1 [Foretinib] (partner 0.25 µM)
Outline: (§1)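 The day after seeding in 1536-well plates, lung cancer cell lines were treated by pin tool with a single drug, or with a fixed anchor-drug dose together with five library-drug doses (not always all listed) in √10 steps. After 5 days, a combined fix-and-stain solution (final 0.05% Triton X-100, 1% formaldehyde, 1 ug/ml Hoechst) was added. Nuclei counted on 4× images gave relative viability as treated counts over vehicle counts, reported as the median of duplicate plates.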

[2] = compound: C1/C(=C\C2=CC=CS2)/C(=O)/C(=C/C3=CC=CS3)/C1 + Nc1ncn([C@H]2C[C@H](O)[C@@H](CO)O2)c(=O)n1 [Decitabine] (partner 2 µM)
Outline: as §1

[3] = compound: C1=CC(=CC=C1C2=CC(=C(S2)NC(=O)N)C(=O)N)F [TPCA-1] + CC(C)C[C@H](NC(=O)[C@H](Cc1ccccc1)NC(=O)c1cnccn1)B(O)O [Bortezomib] (partner 0.002 µM)
Outline: as §1

Row | Cell Line | relative viability ([1]; first compound 0.04 µM) | relative viability ([1]; first compound 0.1265 µM) | relative viability ([1]; first compound 0.4 µM) | relative viability ([1]; first compound 1.265 µM) | relative viability ([1]; first compound 4 µM) | relative viability ([2]; first compound 0.2 µM) | relative viability ([2]; first compound 0.6325 µM) | relative viability ([2]; first compound 2 µM) | relative viability ([2]; first compound 6.325 µM) | relative viability ([2]; first compound 20 µM) | relative viability ([3]; first compound 0.04 µM) | relative viability ([3]; first compound 0.1265 µM) | relative viability ([3]; first compound 0.4 µM) | relative viability ([3]; first compound 1.265 µM) | relative viability ([3]; first compound 4 µM)
1 | SW 900 | 0.894 | 0.71 | 0.841 | 0.958 | 0.789 | 0.404 | 0.434 | 0.375 | 0.42 | 0.438 |  |  |  |  | 
2 | NCI-H1944 | 1.04 | 0.821 | 0.869 | 0.847 | 0.488 | 0.423 | 0.427 | 0.439 |  | 0.392 |  |  |  |  | 
3 | NCI-H727 | 1.01 | 0.922 | 0.738 | 0.788 | 0.829 | 0.939 | 0.976 | 1.2 |  | 0.981 | 1.07 | 0.707 | 0.923 | 0.674 | 0.696
4 | NCI-H1650 | 1.15 |  | 1.36 | 1.14 | 0.858 | 0.484 | 0.374 | 0.442 | 0.499 | 0.354 | 0.26 | 0.219 | 0.204 | 0.203 | 0.208
5 | HCC-827 | 1.14 | 1.03 | 1.06 | 0.873 | 0.443 | 0.316 | 0.38 | 0.377 | 0.28 | 0.308 | 1.06 | 1.06 | 1.09 | 0.964 | 0.89
6 | HCC-366 | 0.921 | 0.86 | 0.922 | 0.851 | 0.654 | 0.296 | 0.329 | 0.341 | 0.369 | 0.336 | 1.07 | 0.94 | 1.13 | 0.92 | 0.647
7 | HARA | 0.874 | 0.907 | 0.887 | 0.893 | 0.681 | 0.755 | 0.571 | 0.558 | 0.529 | 0.595 | 1.08 | 1.13 | 1.14 | 1.03 | 1.07
8 | NCI-H322M | 1.2 | 0.973 | 1.01 | 0.998 | 0.633 | 0.654 | 0.63 | 0.743 | 0.654 | 0.678 | 1.18 | 1.17 | 1.36 | 1.24 | 1.27
9 | LXF-289 | 0.972 | 0.966 | 0.89 | 0.981 | 0.692 | 0.371 | 0.386 | 0.355 | 0.373 | 0.344 | 1.03 | 0.941 | 0.987 | 1.01 | 0.781
10 | PC-3 [JPC-3] | 1.03 | 1.08 | 0.968 | 0.984 | 1.02 |  | 0.792 | 0.849 | 0.694 | 0.815 | 0.896 | 0.812 | 0.833 | 0.792 | 0.851
11 | CAL-12T | 1.21 | 0.989 | 1.15 | 1.08 | 0.716 |  |  |  |  |  | 1.07 | 0.941 | 1.03 | 0.767 | 0.607
12 | COR-L 105 | 1.01 | 1.1 | 1.23 | 1.2 | 0.983 | 0.526 | 0.668 | 0.699 | 0.444 | 0.7 | 0.846 | 0.808 | 0.982 | 0.516 | 0.333
13 | NCI-H2347 | 1.03 |  | 1.16 | 0.551 | 0.782 | 0.689 | 0.581 | 0.628 | 0.57 | 0.633 | 0.945 |  | 0.894 | 0.662 | 1.16
14 | NCI-H2126 | 1.25 | 0.721 | 1.16 | 1.06 | 1 | 0.564 | 0.624 | 0.547 | 0.582 | 0.587 | 1.15 | 1.04 | 1.07 | 1.06 | 1.09
15 | NCI-H838 | 1.06 | 0.99 | 0.918 | 0.843 | 0.769 | 0.42 | 0.473 | 0.468 | 0.448 | 0.449 | 1.2 | 0.594 | 0.876 | 0.35 | 0.739
16 | A549 | 0.989 | 1.03 | 0.947 | 0.826 | 0.764 | 0.281 | 0.295 | 0.237 | 0.384 | 0.229 |  |  |  |  | 
17 | NCI-H2342 | 1.03 | 0.998 | 1.15 | 0.992 | 0.962 | 0.819 | 0.73 | 0.713 | 0.752 | 0.653 |  |  |  |  | 
18 | NCI-H1623 | 0.824 | 0.757 | 0.937 | 0.973 | 0.644 |  |  |  |  |  |  |  |  |  | 
19 | SK-LU-1 | 0.806 | 0.736 | 0.876 | 0.617 | 0.377 | 0.6 | 0.627 | 0.749 | 0.478 | 0.665 | 1.26 | 0.962 | 1.1 | 0.879 | 0.739
20 | NCI-H2085 | 0.846 | 0.79 | 1.2 | 0.882 | 0.742 | 0.56 | 0.544 | 0.597 | 0.498 | 0.508 | 1.13 | 1.06 | 1.04 | 0.965 | 1.01
21 | NCI-H460 | 1.05 | 0.918 | 1.07 | 1.05 | 0.857 | 0.454 | 0.548 | 0.481 | 0.473 | 0.449 | 1.11 | 0.877 | 1.09 | 0.839 | 0.493
22 | Calu-6 | 0.946 | 0.877 | 0.862 | 0.853 | 0.659 |  |  |  |  |  | 1.1 | 0.933 | 1.09 | 0.873 | 0.658

Row | Cell Line | relative viability ([1]; first compound 0.04 µM) | relative viability ([1]; first compound 0.1265 µM) | relative viability ([1]; first compound 0.4 µM) | relative viability ([1]; first compound 1.265 µM) | relative viability ([1]; first compound 4 µM) | relative viability ([2]; first compound 0.2 µM) | relative viability ([2]; first compound 0.6325 µM) | relative viability ([2]; first compound 2 µM) | relative viability ([2]; first compound 6.325 µM) | relative viability ([2]; first compound 20 µM) | relative viability ([3]; first compound 0.04 µM) | relative viability ([3]; first compound 0.1265 µM) | relative viability ([3]; first compound 0.4 µM) | relative viability ([3]; first compound 1.265 µM) | relative viability ([3]; first compound 4 µM)
23 | RERF-LC-KJ | 0.904 | 0.997 | 0.883 | 0.836 | 0.774 | 0.816 | 0.767 | 0.728 | 0.619 | 0.463 | 1.32 | 1.09 | 0.857 | 0.916 | 0.998
24 | LCLC-103H | 0.899 | 0.813 | 0.758 | 0.839 | 0.64 | 0.803 | 0.747 | 0.77 | 0.554 | 0.742 | 1.07 | 1.05 | 1.1 | 0.987 | 1.02
25 | HCC-15 | 1.09 | 0.919 | 1.06 | 0.96 | 0.77 | 0.677 | 0.688 | 0.661 | 0.619 | 0.609 | 1.21 | 0.944 | 1.06 | 1.01 | 0.817
26 | H3255 | 0.825 | 0.876 | 0.821 | 0.541 | 0.514 | 0.81 | 0.538 | 0.527 | 0.55 | 0.494 | 0.872 | 0.758 | 0.701 | 0.595 | 0.691
27 | NCI-H1792 |  |  |  |  |  | 0.642 | 0.519 | 0.561 | 0.495 | 0.496 | 0.97 | 0.924 | 0.84 | 0.964 | 0.559
28 | NCI-H1563 | 1.03 | 0.944 | 0.96 | 0.991 | 1.02 |  |  |  |  |  | 0.924 | 0.875 | 0.836 | 0.741 | 0.793
29 | NCI-H596 | 0.953 | 0.811 | 0.855 | 0.98 | 0.937 | 1.04 | 1.13 | 0.992 | 1.05 | 1.02 | 1.07 | 0.976 | 1.07 |  | 0.976
30 | NCI-H2087 | 1.52 | 0.99 | 1.09 | 0.894 | 0.432 | 0.251 | 0.286 | 0.36 | 0.305 | 0.224 | 0.777 | 0.709 | 0.666 | 0.815 | 0.455
31 | NCI-H522 |  |  |  |  |  | 0.738 | 0.753 | 0.722 | 0.673 | 0.604 |  |  |  |  | 
32 | HCC-44 |  |  |  |  |  | 0.946 | 1 | 0.881 | 0.844 | 0.973 | 0.903 | 0.789 | 0.908 | 0.745 | 0.883
33 | NCI-H1299 | 1.07 | 1.07 | 1.03 | 1.09 | 1.07 |  |  |  |  |  | 1.02 | 0.961 | 1.01 | 0.981 | 1.07
34 | LK-2 | 1.5 | 0.969 | 1.14 | 1.14 | 0.729 | 0.341 | 0.31 | 0.358 | 0.33 | 0.347 |  |  |  |  | 
35 | NCI-H358 | 0.811 | 0.729 | 0.845 | 0.517 | 0.227 | 0.217 | 0.207 | 0.212 | 0.203 | 0.192 |  |  |  |  | 
36 | SK-MES-1 | 0.997 | 0.847 | 0.813 | 0.599 | 0.609 | 0.408 | 0.424 | 0.409 | 0.335 | 0.348 |  |  |  |  | 
37 | NCI-H1648 |  |  |  |  |  | 0.489 | 0.478 | 0.603 | 0.45 | 0.432 |  |  |  |  | 
38 | EBC-1 | 0.0976 | 0.0894 | 0.103 | 0.125 | 0.13 |  |  |  |  |  | 0.521 | 0.617 | 0.618 | 0.59 | 0.479
39 | NCI-H1395 | 1.05 | 1.01 | 0.975 | 0.96 | 0.823 | 0.729 | 0.777 | 0.754 | 0.679 | 0.729 |  |  |  |  | 
40 | NCI-H2228 | 0.899 | 0.677 | 0.842 | 0.717 | 0.722 |  |  |  |  |  | 1.01 | 0.891 | 0.916 | 1.12 | 0.6
41 | IA-LM | 1.14 | 1.02 | 1.09 | 1.01 | 0.885 |  |  |  |  |  | 0.834 | 0.804 | 0.847 | 0.781 | 0.559
42 | NCI-H1703 | 0.308 | 0.33 | 0.315 |  | 0.302 |  |  |  |  |  | 0.299 | 0.385 | 0.394 | 0.41 | 0.367
43 | NCI-H2170 | 1.08 | 0.985 | 0.998 | 0.986 | 0.682 | 0.439 | 0.436 | 0.466 | 0.466 | 0.479 |  |  |  |  | 
44 | NCI-H1793 | 0.72 |  | 0.647 | 0.559 | 0.263 | 0.526 | 0.554 | 0.614 | 0.305 | 0.469 |  |  |  |  | 
